According to US8580731B2, “Insulin-gold nanocluster, pharmaceutical composition for reducing blood glucose comprising the same, and method for detecting adipose cells in tissue by using the same” (priority 2012, dated 2013):

Test system: insulin-degradation enzyme (IDE)
Assay: Insulin-Au NC fluorescence in mouse brain homogenate (IDE degradation and inhibition)
Type: biochemical
Settings: inhibitor 0.01 to 1 mM pre-incubated 30 min with brain homogenate
Procedure: In addition, ten-week-old C57BL/6J male mice were well-anesthetized by i.p. injection of pentobarbital (75 mg/kg), and then the brain was removed and homogenated in PBS. The homogenate was then centrifuged at 6,000×g for 20 min and the supernatant was collected for the preparation of further experiments.
0.01, 0.1, and 1 mM doses of thiorphan or racecadotril, which was known as inhibiting agents for insulin-degradation enzyme (IDE), were co-incubated with the brain homogenates for 30 min, and then 10 μg/ml insulin-Au NCs was added and incubated with brain homogenates for 1 hour at 37° C. The detection of the insulin-Au NCs was determined by 450 nm and 650 nm of the emission excitation wavelength, respectively.

| Structure (SMILES) | recovery of 670 nm emission (IDE inhibition) |
| --- | --- |
| CC(=O)SCC(Cc1ccccc1)C(=O)NCC(=O)OCc1ccccc1 (centres unmarked) [racecadotril] | signal recovery was increased |
| O=C(O)CNC(=O)C(CS)Cc1ccccc1 (centres unmarked) [thiorphan] | signal recovery was increased |
